Reference: patent publication US20240251790A1 (priority 2021, published 2024)

Legend:
Format in all cases: cell-based
[1] = test system: yeast and mold (YM)
[2] = test system: total microbial count (APC)
[3] = test system: coliforms (ECC)

Percitric acid [PCA]
effect on YM [1]: minimal effect
efficiency against APC [2]: efficient
efficiency against ECC [3]: efficient
